Results published in patent US9238656B2, “Imidazo[4,5-b]pyridine derivatives as ALK and JAK modulators for the treatment of proliferative disorders” (priority 2012, dated 2016).
Structures can show the parent of a compound that is named as a salt.

Tests used:
[1] = target: baculovirus-expressed JAK2 kinase (Homo sapiens, UniProt O60674); test: biochemical; settings: 0.2 μM ATP; read-out: JAK2 Potency
In short: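 Time-resolved fluorescence kinase assay using 15 ng/mL baculovirus-expressed JAK2 on Neutravidin-captured biotinylated 15-mer peptide substrate, reaction 20 min at room temperature. IC50 from percent inhibition versus log concentration, sigmoidal variable-slope fit.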

[2] = target: baculovirus-expressed ALK (Homo sapiens, UniProt Q9UM73); test: ALK kinase inhibition, TRF/ELISA; format: biochemical; settings: read-out: ALK Potency
baculovirus-expressed ALK, sequence (Q9UM73 19-1620): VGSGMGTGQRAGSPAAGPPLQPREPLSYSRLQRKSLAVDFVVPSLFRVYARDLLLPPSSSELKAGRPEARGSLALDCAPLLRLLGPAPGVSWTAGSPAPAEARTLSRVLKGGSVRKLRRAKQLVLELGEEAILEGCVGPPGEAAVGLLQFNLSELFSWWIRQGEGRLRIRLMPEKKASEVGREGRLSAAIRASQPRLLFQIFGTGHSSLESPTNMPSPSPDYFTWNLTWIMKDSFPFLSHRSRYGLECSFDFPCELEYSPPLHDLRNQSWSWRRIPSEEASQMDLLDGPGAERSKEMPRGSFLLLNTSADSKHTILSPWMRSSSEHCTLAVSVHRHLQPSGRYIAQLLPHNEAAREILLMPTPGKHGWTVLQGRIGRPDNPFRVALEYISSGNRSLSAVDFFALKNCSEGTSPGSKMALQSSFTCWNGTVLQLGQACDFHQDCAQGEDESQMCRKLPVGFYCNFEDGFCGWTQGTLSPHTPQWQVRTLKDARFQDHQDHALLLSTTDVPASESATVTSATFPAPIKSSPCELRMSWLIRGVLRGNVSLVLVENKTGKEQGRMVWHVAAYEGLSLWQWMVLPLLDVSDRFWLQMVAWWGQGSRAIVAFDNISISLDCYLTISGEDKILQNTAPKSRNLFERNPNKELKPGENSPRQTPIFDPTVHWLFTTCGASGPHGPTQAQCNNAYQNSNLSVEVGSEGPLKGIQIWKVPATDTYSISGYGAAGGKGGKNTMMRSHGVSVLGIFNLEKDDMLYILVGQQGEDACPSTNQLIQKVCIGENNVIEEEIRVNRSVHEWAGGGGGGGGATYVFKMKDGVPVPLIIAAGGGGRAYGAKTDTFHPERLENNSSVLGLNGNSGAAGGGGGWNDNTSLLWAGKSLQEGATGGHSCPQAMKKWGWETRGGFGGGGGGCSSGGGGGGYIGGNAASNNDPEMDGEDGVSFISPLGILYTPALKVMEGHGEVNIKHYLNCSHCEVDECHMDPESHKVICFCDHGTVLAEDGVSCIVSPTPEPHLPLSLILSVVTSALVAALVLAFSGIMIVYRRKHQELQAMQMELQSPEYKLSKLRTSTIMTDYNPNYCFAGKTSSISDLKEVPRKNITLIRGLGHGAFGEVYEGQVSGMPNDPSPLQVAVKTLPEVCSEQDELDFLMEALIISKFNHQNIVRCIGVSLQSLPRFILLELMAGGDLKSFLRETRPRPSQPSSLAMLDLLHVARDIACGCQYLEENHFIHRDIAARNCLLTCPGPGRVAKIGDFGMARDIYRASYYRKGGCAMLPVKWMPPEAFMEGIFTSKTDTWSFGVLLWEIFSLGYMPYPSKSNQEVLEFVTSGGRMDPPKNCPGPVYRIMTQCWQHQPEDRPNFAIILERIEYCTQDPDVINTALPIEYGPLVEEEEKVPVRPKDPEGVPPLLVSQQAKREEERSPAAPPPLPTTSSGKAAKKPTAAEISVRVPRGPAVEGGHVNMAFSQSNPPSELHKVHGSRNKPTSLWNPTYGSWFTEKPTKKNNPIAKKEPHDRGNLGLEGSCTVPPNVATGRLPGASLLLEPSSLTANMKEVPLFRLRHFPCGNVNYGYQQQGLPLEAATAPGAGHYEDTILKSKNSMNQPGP
In short: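 Plates were coated with GST-PLC-γ substrate (10 μg/mL) and the reaction was started with 30 ng/mL ALK, running 15 min at 37° C. Phosphotyrosine was detected by time-resolved fluorescence with Eu-labeled PT66 antibody. IC50s came from variable-slope sigmoidal fits of percent inhibition versus log concentration.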

baculovirus-expressed JAK2 kinase, sequence (O60674 whole entry): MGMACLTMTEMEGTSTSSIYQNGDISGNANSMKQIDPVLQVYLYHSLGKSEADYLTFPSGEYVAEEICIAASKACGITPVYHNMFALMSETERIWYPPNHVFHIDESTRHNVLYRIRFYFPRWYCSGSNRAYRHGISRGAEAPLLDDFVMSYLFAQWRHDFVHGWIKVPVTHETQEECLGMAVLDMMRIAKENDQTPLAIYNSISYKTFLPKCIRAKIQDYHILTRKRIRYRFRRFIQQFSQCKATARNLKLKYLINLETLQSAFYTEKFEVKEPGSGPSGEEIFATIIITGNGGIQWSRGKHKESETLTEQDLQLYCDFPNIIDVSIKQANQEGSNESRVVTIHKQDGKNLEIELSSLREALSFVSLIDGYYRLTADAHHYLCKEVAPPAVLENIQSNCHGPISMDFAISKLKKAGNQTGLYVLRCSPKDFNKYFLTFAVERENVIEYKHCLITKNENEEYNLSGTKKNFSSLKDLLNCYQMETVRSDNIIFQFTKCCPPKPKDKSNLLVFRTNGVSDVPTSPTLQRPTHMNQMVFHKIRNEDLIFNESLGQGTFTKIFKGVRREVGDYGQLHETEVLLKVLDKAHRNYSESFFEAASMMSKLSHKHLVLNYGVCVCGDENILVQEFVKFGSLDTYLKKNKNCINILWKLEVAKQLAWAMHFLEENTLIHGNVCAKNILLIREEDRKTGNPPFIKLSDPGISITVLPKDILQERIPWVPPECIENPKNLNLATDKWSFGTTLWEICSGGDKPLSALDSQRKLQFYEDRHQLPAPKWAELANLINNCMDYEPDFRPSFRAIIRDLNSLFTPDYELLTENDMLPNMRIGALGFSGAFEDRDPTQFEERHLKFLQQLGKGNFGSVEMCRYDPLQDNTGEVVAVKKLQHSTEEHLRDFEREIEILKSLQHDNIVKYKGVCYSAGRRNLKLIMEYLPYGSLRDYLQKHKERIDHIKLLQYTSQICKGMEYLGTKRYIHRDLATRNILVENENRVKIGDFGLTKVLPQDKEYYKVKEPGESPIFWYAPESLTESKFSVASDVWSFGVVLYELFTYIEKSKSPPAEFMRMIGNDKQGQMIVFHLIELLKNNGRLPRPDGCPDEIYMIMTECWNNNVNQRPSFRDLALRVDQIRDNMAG

| Structure (SMILES) | IC50 [1] [nM] | IC50 [2] [nM] |
| --- | --- | --- |
| NC(=O)[C@@H]1[C@H](Nc2c(Br)cnc3[nH]c(-c4sc(N5CCOCC5)nc4Cl)nc23)[C@H]2C=C[C@@H]1C2 [Compound CLXI, (1S,2S,3R,4R)-3-[6-Bromo-2-(4-chloro-2-morpholin-4-yl-thiazol-5-yl)-3H-imidazo[4,5-b]pyridin-7-ylamino]-bicyclo[2.2.1]hept-5-ene-2-carboxylic acid amide] | < 100 | < 100 |
| COc1cc(N2CCOCC2)ccc1-c1nc2c(N3C[C@@H]4C[C@H]3CN4C(=O)OC(C)(C)C)c(Cl)cnc2[nH]1 [Compound XXXVI, (1S,4S)-5-[6-Chloro-2-(2-methoxy-4-morpholinj-4-yl-phenyl)-3H-imidazol-[4,5-b]pyridine-7-yl]-2,5-diaza-bicyclo[2.2.1]heptane-2-carboxylic acid tert-butyl ester] | 1000 to 10000 | > 10000 |
| COc1cc(CN2CCN(C)CC2)ccc1-c1nc2c(N[C@@H]3CCCC[C@H]3NS(C)(=O)=O)c(Cl)cnc2[nH]1 [Compound LXXI, N-((1R,2R)-2-{6-Chloro-2-[2-methoxy-4-(4-methyl-piperazin-1-ylmethyl)-phenyl]-3H-imidazo[4,5-b]pyridine-7-ylamino}-cyclohexyl)-methanesulfonamide] | 1000 to 10000 | < 100 |
| CN1CCN(c2ncc(-c3nc4c(N[C@H]5[C@@H](C(N)=O)[C@@H]6C=C[C@H]5C6)c(Cl)cnc4[nH]3)s2)CC1 [Compound CCXI, (1S,2S,3R,4R)-3-(6-chloro-2-(2-(4-methylpiperazin-1-yl)thiazol-5-yl)-3H-imidazo[4,5-b]pyridin-7-ylamino)bicyclo[2.2.1]hept-5-ene-2-carboxamide] | < 100 | < 100 |
| CN1CCC(c2nc3c(N[C@H]4[C@@H](C(N)=O)[C@@H]5C=C[C@H]4C5)c(Cl)cnc3[nH]2)CC1 [Compound CL, (1S,2S,3R,4R)-3-[6-Chloro-2-(1-methyl-piperidin-4-yl)-3H-imidazo[4,5-b]pyridin-7-ylamino]-bicyclo[2.2.1]hept-5-ene-2-carboxylic acid amide] | > 10000 | 1000 to 10000 |
| CC12CCC(Nc3c(Cl)cnc4[nH]c(-c5ccc(N6CCOCC6)cc5)nc34)(CC1=O)C2(C)C (stereo not shown) [Compound CXCVIII, 4-(6-chloro-2-(4-morpholinophenyl)-3H-imidazo[4,5-b]pyridin-7-ylamino)-1,7,7-trimethylbicyclo[2.2.1]heptan-2-one] | < 100 | > 10000 |
| COc1ccc(-c2nc3c(N[C@H]4[C@@H](C(N)=O)[C@@H]5C=C[C@H]4C5)c(Cl)cnc3[nH]2)c(C2CCN(C[C@H](C)O)CC2)c1 [Compound XXXII, (1S,2S,3R,4R)-3-(6-Chloro-2-{2-[1-((S)-2-hydroxypropyl)-piperidin-4-yl]-4-methoxy-phenyl}-3H-imidazo[4,5-b]pyridin-7-ylamino)-bicyclo[2.2.1]hept-5-ene-2-carboxylic acid amide] | 1000 to 10000 | 1000 to 10000 |
| COc1cc(N2CCOCC2)ccc1-c1nc2c(NC34CCC(C)(C(O)C3)C4(C)C)c(Cl)cnc2[nH]1 (stereo not shown) [Compound CCIII, 4-(6-chloro-2-(2-methoxy-4-morpholinophenyl)-3H-imidazo[4,5-b]pyridin-7-ylamino)-1,7,7-trimethylbicyclo[2.2.1]heptan-2-ol] | 100 to 1000 | 100 to 1000 |
| COc1cc(CN2CCNCC2)ccc1-c1nc2c(N[C@H]3[C@@H](C(N)=O)[C@@H]4C=C[C@H]3C4)c(Cl)cnc2[nH]1 [Compound XLII, (1S,2S,3R,4R)-3-[6-Chloro-2-(2-methoxy-4-piperazin-1-ylmethyl-phenyl)-3H-imidazo[4,5-b]pyridine-7-ylamino]-bicyclo[2.2.1]hept-5-ene-2-carboxylic acid amide] | 100 to 1000 | < 100 |
| NC(=O)CN1CCC(n2cc(-c3nc4c(N[C@H]5[C@@H](C(N)=O)[C@@H]6C=C[C@H]5C6)c(Cl)cnc4[nH]3)cn2)CC1 [Compound LXVI, (1S,2S,3R,4R)-3-{2-[1-(1-Carbamoylmethyl-piperidin-4-yl)-1H-pyrazol-4-yl]-6-chloro-3H-imidazo[4,5-b]pyridine-7-ylamino}-bicyclo[2.2.1]hept-5-ene-2-carboxylic acid amide, trifluoroacetic acid salt] | < 100 | 100 to 1000 |
| COc1ccc(CN2CCOCC2)cc1-c1nc2c(N[C@@H]3CCCC[C@H]3NS(C)(=O)=O)c(Cl)cnc2[nH]1 [Compound LXXIV, N-{(1R,2R)-2-[6-Chloro-2-(2-methoxy-5-morpholin-4-ylmethyl-phenyl)-3H-imidazo[4,5-b]pyridine-7-ylamino]-cyclohexyl}-methanesulfonamide] | > 10000 | 100 to 1000 |

Other lines, results leading:

| IC50 [1] [nM] | IC50 [2] [nM] | Structure (SMILES) |
| --- | --- | --- |
| < 100 | 1000 to 10000 | NC(=O)[C@@H]1[C@H](Nc2c(Cl)cnc3[nH]c(-c4cccc(-n5cccn5)c4)nc23)[C@H]2C=C[C@@H]1C2 [Compound CXXV, (1S,2S,3R,4R)-3-[6-Chloro-2-(3-pyrazol-1-yl-phenyl)-3H-imidazo[4,5-b]pyridin-7-ylamino]-bicyclo[2.2.1]hept-5-ene-2-carboxylic acid amide] |
| < 100 | < 100 | NC(=O)[C@@H]1[C@H](Nc2c(Cl)cnc3[nH]c(-c4ccc(N5CCOCC5)cc4Cl)nc23)[C@H]2C=C[C@@H]1C2 [Compound CXX, (1S,2S,3R,4R)-3-[6-Chloro-2-(2-chloro-4-morpholin-4-yl-phenyl)-3H-imidazo[4,5-b]pyridin-7-ylamino]-bicyclo[2.2.1]hept-5-ene-2-carboxylic acid amide] |
| < 100 | < 100 | CN(C)c1nc(Cl)c(-c2nc3c(N[C@H]4[C@@H](C(N)=O)[C@@H]5C=C[C@H]4C5)c(Cl)cnc3[nH]2)s1 [Compound CLIV, (1S,2S,3R,4R)-3-[6-Chloro-2-(4-chloro-2-dimethylamino-thiazol-5-yl)-3H-imidazo[4,5-b]pyridin-7-ylamino]-bicyclo[2.2.1]hept-5-ene-2-carboxylic acid amide] |
| < 100 | 100 to 1000 | NC(=O)[C@@H]1[C@H](Nc2c(Cl)cnc3[nH]c(-c4cccc(OCC(=O)O)c4)nc23)[C@H]2C=C[C@@H]1C2 [Compound CCLXIII, 2-(3-(7-((1R,2R,3S,4S)-3-carbamoylbicyclo[2.2.1]hept-5-en-2-ylamino)-6-chloro-3H-imidazo[4,5-b]pyridin-2-yl)phenoxy)acetic acid] |
| < 100 | 100 to 1000 | CN1CCN(C(=O)c2cccc(-c3nc4c(N[C@H]5[C@@H](C(N)=O)[C@@H]6C=C[C@H]5C6)c(Cl)cnc4[nH]3)c2)CC1 [Compound CCXXI, (1S,2S,3R,4R)-3-(6-chloro-2-(3-(4-methylpiperazine-1-carbonyl)phenyl)-3H-imidazo[4,5-b]pyridin-7-ylamino)bicyclo[2.2.1]hept-5-ene-2-carboxamide] |
| < 100 | 100 to 1000 | Cc1ncc(-c2nc3c(N[C@H]4[C@@H](C(N)=O)[C@@H]5C=C[C@H]4C5)c(Cl)cnc3[nH]2)s1 [Compound CCVIII, (1S,2S,3R,4R)-3-(6-chloro-2-(2-methylthiazol-5-yl)-3H-imidazo[4,5-b]pyridin-7-ylamino)bicyclo[2.2.1]hept-5-ene-2-carboxamide] |
| < 100 | 100 to 1000 | NC(=O)[C@@H]1[C@H](Nc2c(Cl)cnc3[nH]c(-c4ccc(O)cc4)nc23)[C@H]2C=C[C@@H]1C2 [Compound CCXXXIV, (1S,2S,3R,4R)-3-(6-chloro-2-(4-hydroxyphenyl)-3H-imidazo[4,5-b]pyridin-7-ylamino)bicyclo[2.2.1]hept-5-ene-2-carboxamide] |
| < 100 | < 100 | CN1CCN(Cc2ccc(-c3nc4c(N[C@H]5[C@@H](C(N)=O)[C@@H]6C=C[C@H]5C6)c(Cl)cnc4[nH]3)cc2)CC1 [Compound XX, (1S,2S,3R,4R)-3-{6-Chloro-2-[4-(4-methyl-piperazin-1-ylmethyl)-phenyl]-3H-imidazo[4,5-b]pyridin-7-ylamino}-bicyclo[2.2.1]hept-5-ene-2-carboxylic acid amide; compound with trifluoro-acetic acid bis trifluoroacetic acid salt] |
| < 100 | 100 to 1000 | NC(=O)COc1cccc(-c2nc3c(N[C@H]4[C@@H](C(N)=O)[C@@H]5C=C[C@H]4C5)c(Cl)cnc3[nH]2)c1 [Compound CCXXXVIII, (1S,2S,3R,4R)-3-(2-(3-(2-amino-2-oxoethoxy)phenyl)-6-chloro-3H-imidazo[4,5-b]pyridin-7-ylamino)bicyclo[2.2.1]hept-5-ene-2-carboxamide] |
| < 100 | 100 to 1000 | NC(=O)[C@@H]1[C@H](Nc2c(Br)cnc3[nH]c(-c4ccccc4Cl)nc23)[C@H]2C=C[C@@H]1C2 [Compound CXLIX, (1S,2S,3R,4R)-3-[6-Bromo-2-(2-chloro-phenyl)-3H-imidazo[4,5-b]pyridin-7-ylamino]-bicyclo[2.2.1]hept-5-ene-2-carboxylic acid amide] |
| < 100 | < 100 | NC(=O)[C@@H]1[C@H](Nc2c(Cl)cnc3[nH]c(-c4cccc(C(=O)N5CCNCC5)c4)nc23)[C@H]2C=C[C@@H]1C2 [Compound CCXIX, (1S,2S,3R,4R)-3-(6-chloro-2-(3-(piperazine-1-carbonyl)phenyl)-3H-imidazo[4,5-b]pyridin-7-ylamino)bicyclo[2.2.1]hept-5-ene-2-carboxamide] |
| < 100 | 100 to 1000 | NC(=O)[C@@H]1[C@H](Nc2c(Cl)cnc3[nH]c(-c4cccc(O)c4)nc23)[C@H]2C=C[C@@H]1C2 [Compound CCXXXIII, (1S,2S,3R,4R)-3-(6-chloro-2-(3-hydroxyphenyl)-3H-imidazo[4,5-b]pyridin-7-ylamino)pyridin[2.2.1]hept-5-ene-2-carboxamide] |
